Entries after “also recorded” stand apart in the source; their conditions may differ.
Experiments:
Type in all cases: cell-based, Mycobacterium tuberculosis
[1] = system: ΔndhA mutant
[2] = system: anaerobic nonreplicating MTb cells; test: Anaerobic cidal activity on nonreplicating cells
[3] = system: nuoG deletion mutant; conditions: results not shown

SMILES: O=C(CSc1nc2ccccc2c(=O)[nH]1)NC1CCCCC1 [Compound 1, N-Cyclohexyl-2-((4-oxo-3,4-dihydroquinazolin-2-yl)thio)acetamide]
- Kill of ΔndhA mutant [1]: ~2 log
- Anaerobic cidal activity / viability of anaerobic nonreplicating cells [2]: Lack of anaerobic cidal activity; also recorded: did not affect viability
- MIC to nuoG deletion mutant compared with WT [3]: indistinguishable from WT cells

From publication PMC5996347, “2-Mercapto-Quinazolinones as Inhibitors of Type II NADH Dehydrogenase and Mycobacterium tuberculosis: Structure–Activity Relationships, Mechanism of Action and Absorption, Distribution, Metabolism, and Excretion Characterization” (ACS Infectious Diseases, 2018)
